Source: patent US6841577B2, “Pesticidal activity of plant essential oils and their constituents” (Ecosmart Technologies, Inc., priority 1999, dated 2005)

What was measured:
[1] = tested on: heart of American cockroach (octopamine receptors); assay: Heartbeat after application to thoracic segment; type: in vivo; conditions: mean ±SD of three roaches; for Heart beat/30 sec 30 min after treatment: 300 μg applied to thoracic segment; for Heart beat/30 sec before treatment: baseline of the same roaches
Protocol: To further establish the effect of the purified naturally occurring plant essential oils and/or their constituents on the American cockroach, a 300 μg amount of the chemical was applied to the thoracic segment of an intact and alive American cockroach. The heart beats/30 seconds was measured. The heart of the cockroach is known to have a high concentration of octopamine receptors and the heart beat is considered an important measurement to indicate the effect of the applied chemicals to the octopamine receptors.

American cockroach [2] = assay: Cross walk jar test on pre-treated surface; type: in vivo
Protocol: In the test, a known amount of the test material was dissolved in a known volume of acetone and applied to small jars and all inner bottom surfaces were covered. The bottom surface of each jar is approximately 250 cm^2. One hour after the acetone had completely evaporated, five American cockroaches were introduced to each jar. Control jars were treated exactly as above but with the known amount of acetone only.
The results of the “cross walk” jar tests are in Table 8 in which the “4-blend” was dispersed as an aerosol and a dust in the jar.
In this test, the acetone solution of the test material was placed in the jar and the roach inserted into the jar after the acetone had evaporated.
Mortality was measured 24 hours after exposure.
The “4-blend” and the individual constituents of the “4-blend” were tested using 10 cockroaches for each “cross walk” treatment. In addition, pyrethrins were tested separately and mixed with the various components.
A concentration of 100 mg/jar was used for each individual alone. In the co-treatment experiment without pyrethrins, 20 mg/jar for each chemical was used. In the cotreatment experiment with pyrethrins, 20 mg/jar for the naturally occurring plant material was used. Pyrethrins was used at 2 mg/jar. […] It was noted above that the mortality is dependent upon concentration. […] Some synergism is found between pyrethrins and either α-terpineol or benzyl alcohol.

[3] = tested on: 2nd instar green peach aphid nymphs; assay: Cabbage leaf disc bioassay; type: in vivo
Protocol: A bioassay similar to that for S. litura larvae was used for additional larvae. Cabbage leaf discs were dipped in emulsified aqueous solutions, diluted 1:200 in water, on which 2nd instar green peach aphid nymphs were placed. For each treatment there was 10 aphids per disc with 5 replicates; each experiment was replicated in time (successive days) from 3-5 times. After 24 hours, aphids were reported as being (1) on the leaf disc and feeding; (2) alive, but walking off the disc; or (3) dead. In the field, aphids which cease feeding and abandon a host plant are very unlikely to survive.

[4] = tested on: octopamine receptor sites; assay: 3H-OA binding to ventral nerve cord / synaptosomal membrane protein; set-up: species or system American cockroach (Periplaneta americana); conditions: for dpm 3H-OA/500 μg protein: Table 2; for cpm 3H-OA/500 μg protein: Table 3; for classification with respect to octopamine receptor sites (OAR): based on the binding data of Tables 1-3
Protocol: Different concentrations of unlabeled octopamine (OA) (20, 30, 40, 50, 60, 100 ng) were tested on the binding activity as a positive control. Test chemicals were dissolved in acetone before the assay. Different concentrations of the test chemicals were added directly to the protein preparation from ventral nerve cord. The same amount of solvent (1 μl 0.1%) were added to the control samples. All assays with test chemicals were run in the presence and absence of 50 ng OA. All chemicals were added to the protein extract 20 min prior the addition of radio labeled ^3H-OA(100,000 cpm/sample). After 30 min at 24° C. of the addition of ^3H-OA, the reaction was stopped by the addition of ice-cold Tris buffer, and the samples were filtered through GF/C membrane using water vacuum. After two washes each with 5 ml Tris buffer, the membrane was removed, air dried and the radioactivity was counted in 4 ml liquid scintillation solution. The specific binding was calculated as the difference between the values in the presence and absence of unlabeled OA. All data are calculated as the mean±standard deviation of 5 assays.
Additional tests were conducted on radio labeled octopamine using other purified naturally occurring materials as given in Tables 2 and 3.

American cockroach [5] = assay: Lethal effect of injected test chemicals; type: in vivo; conditions: dead/10
Protocol: Further studies were conducted to determine the LD 50 of purified naturally occurring plant essential oils and/or their constituents. […] Ten roaches per dose were used. Another group of ten roaches received the same volume of vehicle only (0.5 μl) and used as a control group. Mortality was recorded 24, 48, and 72 hours after exposure.

[6] = 500 ng/ml, solvent control 1101 ± 120
[7] = 1000 ng/ml, solvent control 930 ± 89
[8] = 500 ng/ml, solvent control 1385 ± 101
[9] = 1000 ng/ml, solvent control 1915 ± 110

## CC(=O)OCc1ccccc1 [Benzyl Acetate]
[1]
  Heart beat/30 sec 30 min after treatment: 42 ± 1 beat/30 sec
  Heart beat/30 sec before treatment: 45 ± 2 beat/30 sec

## OCc1ccccc1 [Benzyl Alcohol]
[1]
  Heart beat/30 sec 30 min after treatment: 39 ± 2 beat/30 sec
  Heart beat/30 sec before treatment: 45 ± 3 beat/30 sec
American cockroach [2]; Periplaneta americana, 24 h
  mortality at 100 mg: 0%
American cockroach [2]; Periplaneta americana, 48 h
  mortality at 100 mg: 20%
American cockroach [2]; Periplaneta americana, 72 h
  mortality at 100 mg: 40%
American cockroach [2]; Periplaneta americana, inhaled or nasal
  mortality at 10 mg: 100%
[3]; 1:200 dilution
  activity on green peach aphid nymphs, in words: relatively inactive
[3]; diluted 1:200 in water, after 24 hours, n = 250, Table 16, control 23.4
  Percentage of aphids Walking (off disc): 22.3%
[3]; diluted 1:200 in water, after 24 hours, n = 250, Table 16, control 24.8
  Percentage of aphids Dead: 32.8%
[3]; diluted 1:200 in water, after 24 hours, n = 250, Table 16, control 51.7
  Percentage of aphids Feeding: 44.5%

## OC/C=C/c1ccccc1 [Cinnamic Alcohol]
[1]
  Heart beat/30 sec 30 min after treatment: 54 ± 3 beat/30 sec
  Heart beat/30 sec before treatment: 52 ± 2 beat/30 sec

## CC(C)=CCCC(C)CCO (stereo not shown) [Citronellol]
[4]; [6]
  dpm 3H-OA/500 μg protein: 999 ± 65 dpm 3H-OA/500 μg protein
[4]; [7]
  dpm 3H-OA/500 μg protein: 557 ± 43 dpm 3H-OA/500 μg protein

## CCOc1cc(C=O)ccc1O [Ethyl vanillin]
[4]; [8]
  cpm 3H-OA/500 μg protein: 1723 ± 119 cpm 3H-OA/500 μg protein
[4]
  classification with respect to octopamine receptor sites (OAR): Non-OAR Specific Toxicants

## CC12CCC(CC1)C(C)(C)O2 [Eucaluptol, Eucalyptol]
[4]; 500 ng/ml
  agonist/antagonist note to 3H-OA binding: antagonist
[4]; [6]
  dpm 3H-OA/500 μg protein: 865 ± 45 dpm 3H-OA/500 μg protein
[4]; [8]
  cpm 3H-OA/500 μg protein: 1637 ± 095 cpm 3H-OA/500 μg protein
[4]; [7]
  dpm 3H-OA/500 μg protein: 653 ± 36 dpm 3H-OA/500 μg protein
[4]
  classification with respect to octopamine receptor sites (OAR): Non-OAR Specific Toxicants
American cockroach [5]; 500 μg/roach injected into thoracic and abdominal segments, 24 hr.
  Mortality: 0/10
American cockroach [5]; 500 μg/roach injected, 48 hr.
  Mortality: 0/10
American cockroach [5]; 500 μg/roach injected, 72 hr., control 1/10
  Mortality: 0/10

## COc1ccccc1O [Guaiacol]
[4]; [8]
  cpm 3H-OA/500 μg protein: 1787 ± 151 cpm 3H-OA/500 μg protein
[4]
  classification with respect to octopamine receptor sites (OAR): Non-OAR Specific Toxicants

## COC(=O)c1ccccc1O [Methyl salicylate]
[4]
  activity/binding at octopamine receptor sites, in words: antagonists which are most strongly bound
  classification with respect to octopamine receptor sites (OAR): extremely high OAR antagonists
[4]; 500 ng/ml
  agonist/antagonist note to 3H-OA binding: antagonist
[4]; [8]
  cpm 3H-OA/500 μg protein: 0084 ± 009 cpm 3H-OA/500 μg protein
American cockroach [2]; Periplaneta americana, 24 h
  mortality at 10 mg: 0%
  mortality at 20 mg: 20%
  mortality at 30 mg: 40%
  mortality at 40 mg: 80%
  mortality at 50 mg: 100%
American cockroach [2]; in vivo
  pesticidal activity against cockroaches, in words: high pesticidal activity

## O=Cc1ccc2c(c1)OCO2 [Piperonal]
[4]; [8]
  cpm 3H-OA/500 μg protein: 1680 ± 131 cpm 3H-OA/500 μg protein
[4]
  classification with respect to octopamine receptor sites (OAR): Non-OAR Specific Toxicants

## CC(=O)OCc1ccc2c(c1)OCO2 [Piperonyl acetate]
[4]; 500 ng/ml
  agonist/antagonist note to 3H-OA binding: antagonist
[4]; [8]
  cpm 3H-OA/500 μg protein: 1090 ± 092 cpm 3H-OA/500 μg protein
[4]; [9]
  cpm 3H-OA/500 μg protein: 519 ± 52 cpm 3H-OA/500 μg protein

## OCc1ccc2c(c1)OCO2 [Piperonyl alcohol]
[4]; 500 ng/ml
  agonist/antagonist note to 3H-OA binding: antagonist
[4]; [8]
  cpm 3H-OA/500 μg protein: 1124 ± 083 cpm 3H-OA/500 μg protein
[4]; [9]
  cpm 3H-OA/500 μg protein: 862 ± 61 cpm 3H-OA/500 μg protein
